This is an account of results in ChEMBL document CHEMBL3286369, “β-Secretase (BACE1)-inhibiting C-methylrotenoids from Abronia nana suspension cultures” (Bioorg Med Chem Lett, 2014).

Data set [1] deals with T1, Beta-secretase 1 (Homo sapiens, UniProt P56817). The data set can be described thus: Inhibition of BACE1 (unknown origin).
Data set [2] has as its target T1, Beta-secretase 1. The data set is described as follows: Inhibition of BACE1 (unknown origin) expressed in CHO cells coexpressing human APP gene assessed as inhibition of beta-amyloid synthesis. It is filed as cell-based.
Data set [3] deals with T1, Beta-secretase 1. The data set is described as follows: Non-competitive inhibition of BACE1 (unknown origin) by Dixon plot analysis.
Data set [4] is filed under the species Homo sapiens. The data set can be described thus: Inhibition of elastase (unknown origin) up to 1 mM.
Data set [5] is filed under the species Homo sapiens. The data set can be described thus: Inhibition of chymotrypsin (unknown origin) up to 1 mM.
In the next data set the target is Trypsin (Homo sapiens) (UniProt P07477+P07478+P35030). The data set can be described thus: Inhibition of trypsin (unknown origin) up to 1 mM. It is filed as protein assay.
Data set [6] addresses Beta-secretase 1 (Mus musculus) (UniProt P56818). The data set can be described thus: Inhibition of BACE1 in mouse N2A cells transfected with human APP Swedish mutant assessed as amyloid beta (1-42) production at 50 uM. It is filed as cell-based. More on the design: scale not given: the % may be the effect or the level left.
For a further data set, the system named is N2a. The data set can be described thus: Cytotoxicity against mouse N2A cells transfected with human APP Swedish mutant assessed as cell viability at 1 to 50 uM. It is filed as cell-based.

Molecules are shown by their SMILES. Active and inactive are the calls of the source. The rule behind the calls is not given here.

As a reminder, the IC50 is the concentration that inhibits the measured activity by half. The Ki is the dissociation constant of the complex between target and ligand, obtained from inhibition or displacement.

T1 sequence (P56817 whole entry): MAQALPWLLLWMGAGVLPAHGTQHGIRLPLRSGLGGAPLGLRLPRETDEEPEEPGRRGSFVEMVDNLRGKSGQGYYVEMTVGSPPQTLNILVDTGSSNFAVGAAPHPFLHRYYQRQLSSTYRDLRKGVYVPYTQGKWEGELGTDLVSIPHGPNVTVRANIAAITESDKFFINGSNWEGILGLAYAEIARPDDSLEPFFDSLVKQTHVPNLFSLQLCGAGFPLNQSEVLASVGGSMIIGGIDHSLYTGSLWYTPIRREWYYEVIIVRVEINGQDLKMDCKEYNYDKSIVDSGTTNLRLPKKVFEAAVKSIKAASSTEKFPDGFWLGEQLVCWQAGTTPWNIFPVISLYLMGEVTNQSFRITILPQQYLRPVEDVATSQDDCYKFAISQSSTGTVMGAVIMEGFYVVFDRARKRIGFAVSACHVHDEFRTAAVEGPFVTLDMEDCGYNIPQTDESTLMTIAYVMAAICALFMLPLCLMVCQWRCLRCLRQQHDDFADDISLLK
Chain of Beta-secretase 1 (Mus musculus) (P56818 whole entry): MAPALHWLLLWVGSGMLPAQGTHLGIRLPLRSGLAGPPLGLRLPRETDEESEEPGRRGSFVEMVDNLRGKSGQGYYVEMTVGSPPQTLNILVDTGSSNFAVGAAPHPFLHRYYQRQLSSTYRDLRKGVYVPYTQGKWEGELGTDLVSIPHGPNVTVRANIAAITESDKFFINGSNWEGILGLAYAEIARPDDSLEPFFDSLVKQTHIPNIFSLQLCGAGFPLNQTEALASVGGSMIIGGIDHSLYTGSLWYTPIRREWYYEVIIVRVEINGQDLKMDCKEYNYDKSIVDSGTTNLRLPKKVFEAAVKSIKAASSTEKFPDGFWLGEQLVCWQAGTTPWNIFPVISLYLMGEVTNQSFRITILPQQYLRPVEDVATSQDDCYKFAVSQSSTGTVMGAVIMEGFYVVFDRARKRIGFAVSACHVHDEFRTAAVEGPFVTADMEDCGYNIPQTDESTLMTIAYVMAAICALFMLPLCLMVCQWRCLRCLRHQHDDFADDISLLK

At Beta-secretase 1 [1], `O=C(OC[C@H]1O[C@@H](OC(=O)c2cc(O)c(O)c(O)c2)[C@H](OC(=O)c2cc(O)c(O)c(O)c2)[C@@H](OC(=O)c2cc(O)c(O)c(O)c2)[C@@H]1OC(=O)c1cc(O)c(O)c(O)c1)c1cc(O)c(O)c(O)c1` [PENTAGALLOYL GLUCOSE] returned an IC50 of 3.76 µM and a Ki of 5.13 µM.
Turning to `C=C[C@H](c1ccccc1O)c1cc(O)c(OC)cc1OC` [LATIFOLIN], on Beta-secretase 1 [2], the IC50 came out at 180 µM.
`COC1Oc2cc(O)ccc2-c2c1oc1cc(O)c(C)c(O)c1c2=O` (centres undefined) [BOERAVINONE D]: the Ki at Beta-secretase 1 [3] stood at 5.01 µM. In addition, at Beta-secretase 1 [1], inhibition was half-maximal at 4.77 µM (IC50). The inhibition result at Beta-secretase 1 [1] was “Dose-dependent effect”. Moreover, the inhibition result in the data set filed under Homo sapiens [4], in the data set listed under Homo sapiens [5] and at Trypsin (Homo sapiens) was “inactive” each time.
At Beta-secretase 1 [1], `O=c1oc2c(O)c(O)cc3c(=O)oc4c(O)c(O)cc1c4c23` [ELLAGIC ACID] came in with an IC50 of 3.9 µM.
Still for that read-out and setting: under `COc1cc2oc3c(c(=O)c2c(O)c1C)-c1ccccc1OC3OC` (centres undefined) stands above 3000 µM.
At Beta-secretase 1 [3], `COc1cc2oc3c(c(=O)c2c(O)c1C)-c1ccc(O)cc1OC3O` (centres undefined) returned a Ki of 4.28 µM. Half-maximal inhibition against Beta-secretase 1 [1] (IC50) required 4.24 µM. Moreover, the inhibition result on Beta-secretase 1 [1] is “Dose-dependent effect”. Also, the inhibition result in the data set filed under Homo sapiens [4], in the data set listed under Homo sapiens [5] and on Trypsin (Homo sapiens) was “inactive” in each case. Moreover, the Activity is 56% in data set [6] and “Non-toxic” with N2a.
Turning to `COc1cc2c(c(O)c1C)C(=O)[C@@]1(O)c3cccc(OC)c3OC[C@@H]1O2`, at Beta-secretase 1 [1], the IC50 was 62.2 µM and the inhibition result is “Dose-dependent effect”.
On to `O=C1O[C@@H]2[C@@H](OC(=O)c3cc(O)c(O)c(O)c3-c3c1cc(O)c(O)c3O)[C@H](O)O[C@@H]1COC(=O)c3cc(O)c(O)c(O)c3-c3c(O)c(O)c4oc(=O)c5c(c(O)c(O)c6oc(=O)c3c4c65)-c3c(cc(O)c(O)c3O)C(=O)O[C@@H]21` [PUNICALAGIN], for which, at Beta-secretase 1 [1], the IC50 is 0.41 µM.
`O=C(O[C@@H]1O[C@@H]2COC(=O)c3cc(O)c(O)c(O)c3-c3c(cc(O)c(O)c3O)C(=O)O[C@H]2[C@H](OC(=O)c2cc(O)c(O)c(O)c2)[C@H]1OC(=O)c1cc(O)c(O)c(O)c1)c1cc(O)c(O)c(O)c1` [EUGENIIN]: at Beta-secretase 1 [1], the IC50 was 3.1 µM and the affinity corresponds to a Ki of 6.84 µM.
